Data taken from ChEMBL document CHEMBL1122538, “Functional group contributions to drug-receptor interactions” (J Med Chem, 1984).

Experiment: Binding energy by using the equation deltaG obsd = -RT ln KD
Format: ADME

Row | Compound | Binding energy [kcal/mol]
1 | NCCc1c[nH]c2ccccc12 [TRYPTAMINE] | 7.9
2 | COc1cc2nc(N3CCN(C(=O)c4ccco4)CC3)nc(N)c2cc1OC [PRAZOSIN] | 13.1
3 | O=c1[nH]c2ccccc2n1C1CCN(CCCC(c2ccc(F)cc2)c2ccc(F)cc2)CC1 [PIMOZIDE] | 12.8
4 | CCC1(CC=C2CCCCC2)C(=O)NC(=O)NC1=O | 8.4
5 | c1ccc2c(c1)OCC(CN1CCCCC1)O2 (centres undefined) [PIPEROXAN] | 10.7
6 | CN(C)CCC=C1c2ccccc2CCc2ccccc21 [AMITRIPTYLINE] | 12.3
7 | C=C1CC[C@H](O)C/C1=C/C=C1\CCC[C@]2(C)[C@@H]([C@H](C)CCC(O)C(C)(C)O)CC[C@@H]12 (some centres undefined) | 13.2
8 | O=C(CCCN1CCC(O)(c2ccc(Cl)cc2)CC1)c1ccc(F)cc1 [HALOPERIDOL] | 12.3
9 | OC[C@H]1O[C@@H](n2cnc3c2N=CNC[C@H]3O)[C@H](O)[C@@H]1O [COFORMYCIN] | 15
10 | CCN [ETHYLAMINE] | 2.2
11 | CCN(CC)C(=O)[C@@H]1C=C2c3cccc4[nH]cc(c34)C[C@H]2N(C)C1 [LYSERGIDE] | 12.7
12 | O=C(O)CC(O)(CC(=O)O)C(=O)O [CITRIC ACID] | 5
13 | O=C(CCCN1CCC2(CC1)C(=O)NCN2c1ccccc1)c1ccc(F)cc1 [SPIPERONE] | 14
14 | NCCc1c[nH]c2ccc(O)cc12 [SEROTONIN] | 8.9
15 | C[C@]12CCC(=O)C[C@@H]1CC[C@@H]1[C@@H]2CC[C@]2(C)[C@@H](O)CC[C@@H]12 (stereo in doubt) [STANOLONE] | 6.8
16 | CC(=O)O [ACETIC ACID] | 3.1
17 | CC[C@@H](CO)NC(=O)[C@@H]1C=C2c3cccc4c3c(cn4C)C[C@H]2N(C)C1 [METHYSERGIDE] | 12.3
18 | C=C(C)[C@@H]1[C@H]2OC(=O)[C@@H]1[C@]1(O)C[C@H]3O[C@]34C(=O)O[C@H]2[C@]14C [PICROTOXININ] | 8.7
19 | NC1(C(=O)O)CCCC1 [CYCLOLEUCINE] | 4.9
20 | CN1CCC(=C2c3ccccc3Oc3ccc(Cl)cc32)CC1 [CLOPIPAZAN] | 12.8
21 | Cc1c(O)oc2ccccc2c1=O | 7
22 | CN(Cc1cnc2nc(N)nc(N)c2n1)c1ccc(C(=O)N[C@@H](CCC(=O)O)C(=O)O)cc1 [METHOTREXATE] | 12.9
23 | C[N+](C)(C)C [TETRAMETHYLAMMONIUM ION] | 3.6

Row | Compound | Binding energy [kcal/mol]
24 | Cc1c(Cc2ccc(Cl)cc2)cnc2nc(N)nc(N)c12 | 13.2
25 | Cl[C@H]1[C@H](Cl)[C@@H](Cl)[C@@H](Cl)[C@H](Cl)[C@H]1Cl [LINDANE] | 6.1
26 | FLUPENTIXOL | 11.5
27 | CC(C)Cc1ccc(C(C)C(=O)O)cc1 (centres undefined) [IBUPROFEN] | 8.3
28 | Nc1ncnc2c1ncn2[C@@H]1O[C@H](CO)C[C@H]1O [CORDYCEPIN] | 8.2
29 | CC/C(=C(\c1ccccc1)c1ccc(OCCN(C)C)cc1)c1ccccc1 [TAMOXIFEN] | 12.3
30 | O=C(NO)C(O)P(=O)(O)O (centres undefined) | 10.9
31 | OC1(c2ccc(Cl)c(C(F)(F)F)c2)CCN(CCCC(c2ccc(F)cc2)c2ccc(F)cc2)CC1 [PENFLURIDOL] | 9.9
32 | CNCCCN1c2ccccc2CCc2ccccc21 [DESIPRAMINE] | 12.2
33 | CCCCC[C@H](O)/C=C/[C@@H]1[C@@H](C/C=C\CCCC(=O)O)[C@@H](O)C[C@H]1O [DINOPROST] | 9.2
34 | CC(CN1CCOCC1)C(C(=O)N1CCCC1)(c1ccccc1)c1ccccc1 (stereo not drawn) [RACEMORAMIDE] | 12.3
35 | O=c1[nH]c2ccccc2n1CCCN1CCC(n2c(=O)[nH]c3cc(Cl)ccc32)CC1 [DOMPERIDONE] | 13.8
36 | CC(C(=O)O)c1ccc(-c2ccccc2)c(F)c1 (centres undefined) [FLURBIPROFEN] | 9.1
37 | CC[C@@H]1C(=O)OC[C@@H]1Cc1cncn1C [PILOCARPINE] | 10.1
38 | C=C(C)[C@@H]1[C@H]2OC(=O)[C@@H]1[C@]1(O)[C@H]3O[C@H]3[C@]3(CO3)[C@]1(C)[C@@H]2O | 8.8
39 | CN(C)CCC=C1c2ccccc2COc2ccccc21 [DOXEPIN] | 13.1
40 | CN(C)CCC(c1ccc(Cl)cc1)c1ccccn1 (centres undefined) [CHLORPHENIRAMINE] | 12.8
41 | NC(=O)N1c2ccccc2C=Cc2ccccc21 [CARBAMAZEPINE] | 5.9
42 | CN1CCc2cccc3c2[C@H]1Cc1ccc(O)c(O)c1-3 [APOMORPHINE] | 11.9
43 | CC(=O)CC(c1ccccc1)c1c(O)c2ccccc2oc1=O (centres undefined) [WARFARIN] | 6.9
44 | COc1ccc2cc([C@H](C)C(=O)O)ccc2c1 [NAPROXEN] | 8.5
45 | CN(C)CCc1c[nH]c2ccc(O)cc12 [BUFOTENINE] | 9.4
46 | CC[C@H](C)[C@H](N)C(=O)O [ISOLEUCINE] | 7.1

Row | Compound | Binding energy [kcal/mol]
47 | O=C1CCN([C@H]2C[C@H](O)[C@@H](COP(=O)(O)O)O2)C(=O)N1 | 10.9
48 | CN1[C@@H]2C[C@@H](OC(=O)[C@H](CO)c3ccccc3)C[C@H]1[C@@H]1O[C@@H]12 [SCOPOLAMINE] | 12.9
49 | CCC(=O)C(CC(C)N(C)C)(c1ccccc1)c1ccccc1 (centres undefined) [METHADONE] | 11.8
50 | CCC1(c2ccccc2)C(=O)NC(=O)N(C)C1=O (centres undefined) [MEPHOBARBITAL] | 7.3
51 | O=c1[nH]c(=O)c2c[nH]nc2[nH]1 [OXYPURINOL] | 12.6
52 | Oc1ccccc1 [PHENOL] | 2.7
53 | NCc1cc(=O)[nH]o1 [MUSCIMOL] | 11.9
54 | CSc1ccc2c(c1)N(CCC1CCCCN1C)c1ccccc1S2 (centres undefined) [THIORIDAZINE] | 11
55 | CCc1nc(N)nc(N)c1C12CC3CC(CC(C3)C1)C2 | 13.4
56 | C[C@]12CCC(=O)C[C@@H]1CC[C@@H]1[C@@H]2CC[C@]2(C)[C@@H](O)CC[C@@H]12 (stereo in doubt; 155) [STANOLONE] | 13.1
57 | CN(C)CCCN1c2ccccc2Sc2ccc(Cl)cc21 [CHLORPROMAZINE] | 12.3
58 | C[C@]12CCC(=O)C=C1CC[C@@H]1[C@@H]2[C@@H](O)C[C@]2(C=O)[C@@H](C(=O)CO)CC[C@@H]12 [ALDOSTERONE] | 12.7
59 | CO[C@]12CC[C@@]3(C[C@@H]1[C@](C)(O)C(C)(C)C)[C@H]1Cc4ccc(O)c5c4[C@@]3(CCN1CC1CC1)[C@H]2O5 [BUPRENORPHINE] | 13.4
60 | O=C(O)CC(CC(=O)CP(=O)(O)O)C(=O)O (centres undefined) | 10.9
61 | C[C@H]1[C@H]2C(=O)c3ccc(O)cc3[C@]1(C)CCN2CC1CC1 [KETAZOCINE] | 11.4
62 | O=P(O)(O)CCCCO | 3.3
63 | OC[C@H]1OC(O)[C@H](O)[C@@H](O)[C@@H]1O (some centres undefined) [DEXTROSE] | 8.7
64 | NC(=O)C1(N2CCCCC2)CCN(CCCC(=O)c2ccc(F)cc2)CC1 [PIPAMPERONE] | 12.4
65 | O=c1oc2ccccc2c(O)c1Cc1c(O)c2ccccc2oc1=O [DICUMAROL] | 8.8
66 | C=CCc1ccccc1OCC(O)CNC(C)C (centres undefined) [ALPRENOLOL] | 12.9
67 | COC(=O)C1=CCCN(C)C1 [ARECOLINE] | 7.2
68 | CN(C)CCOC(c1ccc(Cl)cc1)c1ccccn1 (centres undefined) [CARBINOXAMINE] | 12.3
69 | O=C(O)C(Cc1ccccc1)OP(=O)(O)O (centres undefined) | 9.3

Row | Compound | Binding energy [kcal/mol]
70 | O=C1CN=C(c2ccccn2)c2cc(Br)ccc2N1 [BROMAZEPAM] | 10.3
71 | COc1ccc(CN(CCN(C)C)c2ccccn2)cc1 [PYRILAMINE] | 12.7
72 | O=P(O)(O)O [PHOSPHORIC ACID] | 7.7
73 | O=C1NCN(c2ccccc2)C12CCN(CCCC(c1ccc(F)cc1)c1ccc(F)cc1)CC2 [FLUSPIRILENE] | 11.6
74 | CN1CCN(C2=Nc3cc(Cl)ccc3Nc3ccccc32)CC1 [CLOZAPINE] | 12.3
75 | C[C@]12C[C@H](O)[C@H]3[C@@H](CCC4=CC(=O)CC[C@@]43C)[C@@H]1CC[C@@H]2C(=O)CO [CORTICOSTERONE] | 11.6
76 | CCCCCc1ccc2nc(N)nc(N)c2c1C | 18.7
77 | CN1Cc2c(N)cccc2C(c2ccccc2)C1 (centres undefined) [NOMIFENSINE] | 8.8
78 | Nc1cc(Cl)c(N=C2NCCN2)c(Cl)c1 [APRACLONIDINE] | 12.7
79 | CO/C=C/C(N)C(=O)O (centres undefined) | 5.9
80 | NCCc1ccc(O)c(O)c1 [DOPAMINE] | 11.8
81 | COc1cc(CCN)cc(OC)c1OC [MESCALINE] | 7.1
82 | NCCCC(=O)O [GAMMA-AMINOBUTYRIC ACID] | 10.9
83 | O=P(O)(O)OC[C@H]1OC(O)(COP(=O)(O)O)[C@@H](O)[C@@H]1O (some centres undefined) [FOSFRUCTOSE] | 10.2
84 | O=C(O)Cc1ccccc1Oc1ccc(Cl)cc1Cl [FENCLOFENAC] | 9.2
85 | Clc1ccc(C(c2ccc(Cl)cc2)C(Cl)(Cl)Cl)cc1 [CHLOROPHENOTHANE] | 7.6
86 | CC(Oc1c(Cl)cccc1Cl)C1=NCCN1 (centres undefined) [LOFEXIDINE] | 11.8
87 | CN1CCC[C@H]1c1cccnc1 [NICOTINE] | 11.2
88 | COc1cccc(OC)c1OCCNCC1COc2ccccc2O1 (centres undefined) | 12.9
89 | Cc1nc(N)nc(N)c1-c1ccc(Cl)c(Cl)c1 [METOPRINE] | 12.3
